Results taken from the kinase profiling compilation of Christmann-Franck et al. (2016).

What was measured:
Test in all cases: KINOMEscan competition binding
Conditions in all cases: compound 10.0 µM
RIPK2 (human) = RIPK2 (human) (UniProt O43353)
MAP3K4 (human) = MAP3K4 (human) (UniProt Q9Y6R4)
NEK9 (human) = NEK9 (human) (UniProt Q8TD19)
SRPK3 (human) = SRPK3 (human) (UniProt Q9UPE1)
NTRK1 (human) = NTRK1 (human) (UniProt P04629)
CDK15 (human) = CDK15 (human) (UniProt Q96Q40)
RIPK1 (human) = RIPK1 (human) (UniProt Q13546)
STK16 (human) = STK16 (human) (UniProt O75716)
MKNK2 (human) = MKNK2 (human) (UniProt Q9HBH9)
YES1 (human) = YES1 (human) (UniProt P07947)
STK38L (human) = STK38L (human) (UniProt Q9Y2H1)
ROS1 (human) = ROS1 (human) (UniProt P08922)
FGFR1 (human) = FGFR1 (human) (UniProt P11362)
HCK (human) = HCK (human) (UniProt P08631)
CAMK1D (human) = CAMK1D (human) (UniProt Q8IU85)
ACVR1B (human) = ACVR1B (human) (UniProt P36896)
[1] = biological target: JAK1 JH2 pseudokinase (human) (UniProt P23458)
FLT1 (human) = FLT1 (human) (UniProt P17948)
MST1R (human) = MST1R (human) (UniProt Q04912)
TLK1 (human) = TLK1 (human) (UniProt Q9UKI8)
PAK4 (human) = PAK4 (human) (UniProt O96013)
GAK (human) = GAK (human) (UniProt O14976)
ADCK4 (human) = ADCK4 (human) (UniProt Q96D53)
CHUK (human) = CHUK (human) (UniProt O15111)
STK17B (human) = STK17B (human) (UniProt O94768)
STK32C (human) = STK32C (human) (UniProt Q86UX6)
TNK2 (human) = TNK2 (human) (UniProt Q07912)
NEK7 (human) = NEK7 (human) (UniProt Q8TDX7)
NEK5 (human) = NEK5 (human) (UniProt Q6P3R8)
CSNK2A1 (human) = CSNK2A1 (human) (UniProt P68400)
CDK7 (human) = CDK7 (human) (UniProt P50613)
PDPK1 (human) = PDPK1 (human) (UniProt O15530)
PKN1 (human) = PKN1 (human) (UniProt Q16512)
CSNK1A1L (human) = CSNK1A1L (human) (UniProt Q8N752)
EPHA5 (human) = EPHA5 (human) (UniProt P54756)
Sequence of EPHA5 (human) (P54756 whole entry, looked up): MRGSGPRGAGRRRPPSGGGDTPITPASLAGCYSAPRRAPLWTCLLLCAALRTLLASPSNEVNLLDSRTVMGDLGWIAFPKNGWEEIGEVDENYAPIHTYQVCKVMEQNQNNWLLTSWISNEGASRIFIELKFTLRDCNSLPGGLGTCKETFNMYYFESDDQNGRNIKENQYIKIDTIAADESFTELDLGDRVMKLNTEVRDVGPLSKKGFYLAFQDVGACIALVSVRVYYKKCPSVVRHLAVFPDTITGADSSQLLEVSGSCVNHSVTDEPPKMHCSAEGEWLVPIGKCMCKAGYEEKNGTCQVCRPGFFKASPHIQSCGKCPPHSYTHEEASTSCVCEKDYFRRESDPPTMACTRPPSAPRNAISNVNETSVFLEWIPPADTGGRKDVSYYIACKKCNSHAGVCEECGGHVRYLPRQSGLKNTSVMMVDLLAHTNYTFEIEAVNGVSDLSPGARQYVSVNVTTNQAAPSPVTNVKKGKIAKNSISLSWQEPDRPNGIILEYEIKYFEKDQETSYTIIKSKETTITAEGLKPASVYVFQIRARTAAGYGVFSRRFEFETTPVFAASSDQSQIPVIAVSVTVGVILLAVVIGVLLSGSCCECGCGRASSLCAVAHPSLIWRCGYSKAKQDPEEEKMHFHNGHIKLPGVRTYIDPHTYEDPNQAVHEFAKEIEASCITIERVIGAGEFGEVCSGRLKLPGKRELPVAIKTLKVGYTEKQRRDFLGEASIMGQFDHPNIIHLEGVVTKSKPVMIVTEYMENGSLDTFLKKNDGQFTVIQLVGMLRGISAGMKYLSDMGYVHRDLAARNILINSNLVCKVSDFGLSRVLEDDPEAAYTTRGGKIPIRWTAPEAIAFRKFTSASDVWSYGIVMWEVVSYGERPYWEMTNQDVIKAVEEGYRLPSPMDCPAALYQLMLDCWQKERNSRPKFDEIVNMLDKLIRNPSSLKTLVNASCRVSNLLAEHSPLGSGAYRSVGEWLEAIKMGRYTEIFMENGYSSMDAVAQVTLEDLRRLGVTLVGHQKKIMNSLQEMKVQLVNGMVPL

Sequence of JAK1 JH2 pseudokinase (human) (P23458 whole entry, looked up): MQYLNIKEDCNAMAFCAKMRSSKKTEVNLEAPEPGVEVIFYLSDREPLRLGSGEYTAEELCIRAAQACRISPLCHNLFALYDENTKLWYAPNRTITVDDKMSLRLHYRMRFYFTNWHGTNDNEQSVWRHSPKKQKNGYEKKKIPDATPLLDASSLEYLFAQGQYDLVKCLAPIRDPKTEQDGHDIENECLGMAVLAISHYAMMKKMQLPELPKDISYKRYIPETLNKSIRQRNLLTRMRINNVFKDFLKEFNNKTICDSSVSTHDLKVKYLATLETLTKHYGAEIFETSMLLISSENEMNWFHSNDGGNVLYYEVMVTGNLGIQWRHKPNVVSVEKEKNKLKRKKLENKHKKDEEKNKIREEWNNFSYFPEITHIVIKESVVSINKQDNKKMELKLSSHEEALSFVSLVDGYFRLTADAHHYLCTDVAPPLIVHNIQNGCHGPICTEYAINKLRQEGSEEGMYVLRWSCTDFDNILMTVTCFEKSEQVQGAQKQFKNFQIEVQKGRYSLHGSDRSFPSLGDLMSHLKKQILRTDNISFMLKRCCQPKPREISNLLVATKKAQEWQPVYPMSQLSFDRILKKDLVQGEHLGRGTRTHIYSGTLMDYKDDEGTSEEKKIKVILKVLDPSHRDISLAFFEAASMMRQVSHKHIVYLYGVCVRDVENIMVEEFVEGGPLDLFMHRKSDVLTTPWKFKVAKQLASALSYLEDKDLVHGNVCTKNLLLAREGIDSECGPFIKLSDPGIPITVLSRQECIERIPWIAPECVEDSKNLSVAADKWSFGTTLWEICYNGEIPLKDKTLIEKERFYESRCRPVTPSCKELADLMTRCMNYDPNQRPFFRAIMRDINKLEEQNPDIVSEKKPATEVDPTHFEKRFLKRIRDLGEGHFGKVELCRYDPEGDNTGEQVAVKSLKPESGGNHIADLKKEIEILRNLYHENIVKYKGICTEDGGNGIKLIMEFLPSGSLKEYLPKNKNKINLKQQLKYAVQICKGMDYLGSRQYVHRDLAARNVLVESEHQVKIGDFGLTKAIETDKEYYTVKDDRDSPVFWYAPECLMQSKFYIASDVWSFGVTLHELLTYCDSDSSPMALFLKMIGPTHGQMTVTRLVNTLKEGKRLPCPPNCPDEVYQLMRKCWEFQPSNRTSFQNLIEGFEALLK
Sequence of CDK7 (human) (P50613 whole entry, looked up): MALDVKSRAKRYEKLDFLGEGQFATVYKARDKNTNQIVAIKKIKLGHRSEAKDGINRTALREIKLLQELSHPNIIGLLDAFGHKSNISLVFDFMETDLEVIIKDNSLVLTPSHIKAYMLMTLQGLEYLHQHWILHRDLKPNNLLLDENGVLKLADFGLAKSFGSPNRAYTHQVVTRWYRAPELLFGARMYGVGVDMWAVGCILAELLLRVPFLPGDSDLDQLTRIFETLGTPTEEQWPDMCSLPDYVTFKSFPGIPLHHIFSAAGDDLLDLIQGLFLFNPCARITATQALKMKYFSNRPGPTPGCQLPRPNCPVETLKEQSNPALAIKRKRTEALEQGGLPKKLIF
Sequence of TNK2 (human) (Q07912 whole entry, looked up): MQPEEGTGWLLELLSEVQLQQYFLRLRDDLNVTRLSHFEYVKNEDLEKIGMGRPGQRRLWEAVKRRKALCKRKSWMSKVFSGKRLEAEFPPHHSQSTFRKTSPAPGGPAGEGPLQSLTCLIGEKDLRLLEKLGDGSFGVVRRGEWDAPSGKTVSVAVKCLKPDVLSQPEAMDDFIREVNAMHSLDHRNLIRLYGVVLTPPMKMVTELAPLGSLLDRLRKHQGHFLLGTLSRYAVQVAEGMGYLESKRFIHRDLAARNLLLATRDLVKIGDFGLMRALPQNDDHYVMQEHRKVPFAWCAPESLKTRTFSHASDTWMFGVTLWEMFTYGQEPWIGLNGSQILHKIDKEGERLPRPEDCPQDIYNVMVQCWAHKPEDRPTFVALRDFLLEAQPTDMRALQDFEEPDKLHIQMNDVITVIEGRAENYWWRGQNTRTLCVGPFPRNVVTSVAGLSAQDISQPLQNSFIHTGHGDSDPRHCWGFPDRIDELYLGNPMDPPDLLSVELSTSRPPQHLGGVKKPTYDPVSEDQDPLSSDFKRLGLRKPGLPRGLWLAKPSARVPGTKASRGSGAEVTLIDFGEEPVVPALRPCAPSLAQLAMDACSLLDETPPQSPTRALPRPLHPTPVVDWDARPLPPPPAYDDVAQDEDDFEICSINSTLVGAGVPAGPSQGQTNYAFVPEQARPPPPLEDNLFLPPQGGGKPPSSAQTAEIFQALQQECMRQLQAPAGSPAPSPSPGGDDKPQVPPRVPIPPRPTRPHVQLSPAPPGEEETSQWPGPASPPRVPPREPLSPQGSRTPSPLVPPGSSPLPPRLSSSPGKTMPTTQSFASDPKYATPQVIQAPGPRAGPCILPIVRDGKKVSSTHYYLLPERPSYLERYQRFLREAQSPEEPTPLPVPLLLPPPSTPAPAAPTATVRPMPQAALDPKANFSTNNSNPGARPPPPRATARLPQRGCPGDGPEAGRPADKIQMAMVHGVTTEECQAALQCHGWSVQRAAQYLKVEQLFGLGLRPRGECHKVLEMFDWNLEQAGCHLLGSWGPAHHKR
Sequence of NEK9 (human) (Q8TD19 whole entry, looked up): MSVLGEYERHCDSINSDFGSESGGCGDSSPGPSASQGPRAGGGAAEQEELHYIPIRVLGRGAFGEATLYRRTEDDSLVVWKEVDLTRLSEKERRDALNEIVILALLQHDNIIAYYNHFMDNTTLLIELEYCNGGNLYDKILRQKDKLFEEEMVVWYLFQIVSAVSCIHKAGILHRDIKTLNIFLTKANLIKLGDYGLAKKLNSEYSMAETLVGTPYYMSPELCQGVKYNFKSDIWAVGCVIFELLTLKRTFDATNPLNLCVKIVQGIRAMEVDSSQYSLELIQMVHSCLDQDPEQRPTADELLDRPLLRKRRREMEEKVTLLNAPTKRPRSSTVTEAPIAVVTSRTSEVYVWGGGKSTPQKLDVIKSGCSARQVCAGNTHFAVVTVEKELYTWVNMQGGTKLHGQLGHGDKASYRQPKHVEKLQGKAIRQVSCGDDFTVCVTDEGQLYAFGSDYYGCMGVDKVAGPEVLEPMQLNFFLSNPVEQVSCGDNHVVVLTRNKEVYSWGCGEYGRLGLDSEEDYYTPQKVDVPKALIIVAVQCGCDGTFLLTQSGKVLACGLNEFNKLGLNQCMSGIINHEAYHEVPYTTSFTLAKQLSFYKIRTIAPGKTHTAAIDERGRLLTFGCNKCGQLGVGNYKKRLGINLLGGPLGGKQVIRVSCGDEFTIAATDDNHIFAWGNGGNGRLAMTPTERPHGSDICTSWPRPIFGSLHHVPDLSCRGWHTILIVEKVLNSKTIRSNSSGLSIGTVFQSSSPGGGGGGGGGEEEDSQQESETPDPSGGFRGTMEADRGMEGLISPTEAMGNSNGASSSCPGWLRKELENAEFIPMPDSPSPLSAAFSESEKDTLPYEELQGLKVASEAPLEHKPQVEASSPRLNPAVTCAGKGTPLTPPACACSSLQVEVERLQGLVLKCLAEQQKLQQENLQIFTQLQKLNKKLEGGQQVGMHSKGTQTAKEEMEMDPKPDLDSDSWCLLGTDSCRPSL
Sequence of HCK (human) (P08631 whole entry, looked up): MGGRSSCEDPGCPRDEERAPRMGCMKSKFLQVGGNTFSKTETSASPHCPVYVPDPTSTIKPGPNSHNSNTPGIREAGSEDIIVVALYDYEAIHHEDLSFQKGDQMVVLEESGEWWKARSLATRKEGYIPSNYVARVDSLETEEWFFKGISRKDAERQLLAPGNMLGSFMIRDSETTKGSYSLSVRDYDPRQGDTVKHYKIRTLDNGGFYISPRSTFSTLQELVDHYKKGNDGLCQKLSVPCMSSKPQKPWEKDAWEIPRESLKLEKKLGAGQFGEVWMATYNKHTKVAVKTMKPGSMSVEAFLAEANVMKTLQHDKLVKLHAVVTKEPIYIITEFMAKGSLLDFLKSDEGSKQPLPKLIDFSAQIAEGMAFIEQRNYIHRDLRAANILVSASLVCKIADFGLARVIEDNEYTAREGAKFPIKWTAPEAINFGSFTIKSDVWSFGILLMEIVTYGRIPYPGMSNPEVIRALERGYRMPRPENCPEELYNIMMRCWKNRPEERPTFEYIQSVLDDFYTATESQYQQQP

In the case of C=CC(=O)Nc1ccc(CN(C(=O)Nc2c(Cl)c(OC)cc(OC)c2Cl)c2cc(Nc3ccc(N4CCN(C)CC4)cc3)ncn2)cc1, the kinase still bound, per cent of control (RIPK2 (human)) is reported as 100%, the kinase still bound, per cent of control (MAP3K4 (human)) is reported as 10% and the kinase still bound, per cent of control (NEK9 (human)) is reported as 100%. The kinase still bound, per cent of control (SRPK3 (human)) was 100%, the kinase still bound, per cent of control (NTRK1 (human)) was 100% and the kinase still bound, per cent of control (CDK15 (human)) was 100%. It also gave a kinase still bound, per cent of control (RIPK1 (human)) of 100%, a kinase still bound, per cent of control (STK16 (human)) of 100% and a kinase still bound, per cent of control (MKNK2 (human)) of 100%. The kinase still bound, per cent of control (YES1 (human)) was 5.2%, the kinase still bound, per cent of control (STK38L (human)) was 100% and the kinase still bound, per cent of control (ROS1 (human)) was 100%. It also gave a kinase still bound, per cent of control (FGFR1 (human)) of 2.2%, a kinase still bound, per cent of control (HCK (human)) of 11% and a kinase still bound, per cent of control (CAMK1D (human)) of 100%. It also gave a kinase still bound, per cent of control (ACVR1B (human)) of 100%, a kinase still bound, per cent of control [1] of 100% and a kinase still bound, per cent of control (FLT1 (human)) of 0.3%. It also gave a kinase still bound, per cent of control (MST1R (human)) of 100%, a kinase still bound, per cent of control (TLK1 (human)) of 100% and a kinase still bound, per cent of control (PAK4 (human)) of 100%. It also gave a kinase still bound, per cent of control (GAK (human)) of 100%, a kinase still bound, per cent of control (ADCK4 (human)) of 100% and a kinase still bound, per cent of control (CHUK (human)) of 100%. For the same compound, the kinase still bound, per cent of control (STK17B (human)) was 100%, the kinase still bound, per cent of control (STK32C (human)) was 100% and the kinase still bound, per cent of control (TNK2 (human)) was 1.7%. It also gave a kinase still bound, per cent of control (NEK7 (human)) of 100%, a kinase still bound, per cent of control (NEK5 (human)) of 100% and a kinase still bound, per cent of control (CSNK2A1 (human)) of 100%. It also gave a kinase still bound, per cent of control (CDK7 (human)) of 100%, a kinase still bound, per cent of control (PDPK1 (human)) of 100% and a kinase still bound, per cent of control (PKN1 (human)) of 100%. The kinase still bound, per cent of control (CSNK1A1L (human)) was 100% and the kinase still bound, per cent of control (EPHA5 (human)) was 100%.

Cc1n[nH]c2ccc(-c3cncc(OC[C@@H](N)Cc4c[nH]c5ccccc45)c3)cc12 was tested, and the kinase still bound, per cent of control (RIPK2 (human)) was 100%, the kinase still bound, per cent of control (MAP3K4 (human)) was 100% and the kinase still bound, per cent of control (NEK9 (human)) was 100%. For the same compound, the kinase still bound, per cent of control (SRPK3 (human)) was 0.95%, the kinase still bound, per cent of control (NTRK1 (human)) was 100% and the kinase still bound, per cent of control (CDK15 (human)) was 16%. For the same compound, the kinase still bound, per cent of control (RIPK1 (human)) was 100%, the kinase still bound, per cent of control (STK16 (human)) was 100% and the kinase still bound, per cent of control (MKNK2 (human)) was 13%. It also gave a kinase still bound, per cent of control (YES1 (human)) of 100%, a kinase still bound, per cent of control (STK38L (human)) of 100% and a kinase still bound, per cent of control (ROS1 (human)) of 100%. The kinase still bound, per cent of control (FGFR1 (human)) was 100%, the kinase still bound, per cent of control (HCK (human)) was 100% and the kinase still bound, per cent of control (CAMK1D (human)) was 11%. The kinase still bound, per cent of control (ACVR1B (human)) was 100%, the kinase still bound, per cent of control [1] was 100% and the kinase still bound, per cent of control (FLT1 (human)) was 100%. The kinase still bound, per cent of control (MST1R (human)) was 100%, the kinase still bound, per cent of control (TLK1 (human)) was 100% and the kinase still bound, per cent of control (PAK4 (human)) was 13%. The kinase still bound, per cent of control (GAK (human)) was 8.1%, the kinase still bound, per cent of control (ADCK4 (human)) was 100% and the kinase still bound, per cent of control (CHUK (human)) was 1%. The kinase still bound, per cent of control (STK17B (human)) was 20%, the kinase still bound, per cent of control (STK32C (human)) was 100% and the kinase still bound, per cent of control (TNK2 (human)) was 100%. It also gave a kinase still bound, per cent of control (NEK7 (human)) of 100%, a kinase still bound, per cent of control (NEK5 (human)) of 100% and a kinase still bound, per cent of control (CSNK2A1 (human)) of 17%. It also gave a kinase still bound, per cent of control (CDK7 (human)) of 0.3%, a kinase still bound, per cent of control (PDPK1 (human)) of 100% and a kinase still bound, per cent of control (PKN1 (human)) of 0%. It also gave a kinase still bound, per cent of control (CSNK1A1L (human)) of 11% and a kinase still bound, per cent of control (EPHA5 (human)) of 100%.

For CCN(CC)CCCCNc1ncc2cc(-c3cc(OC)cc(OC)c3)c(NC(=O)NC(C)(C)C)nc2n1, the kinase still bound, per cent of control (RIPK2 (human)) was 100%, the kinase still bound, per cent of control (MAP3K4 (human)) was 100% and the kinase still bound, per cent of control (NEK9 (human)) was 100%. For the same compound, the kinase still bound, per cent of control (NTRK1 (human)) was 100%, the kinase still bound, per cent of control (RIPK1 (human)) was 100% and the kinase still bound, per cent of control (STK16 (human)) was 100%. It also gave a kinase still bound, per cent of control (MKNK2 (human)) of 100%, a kinase still bound, per cent of control (YES1 (human)) of 100% and a kinase still bound, per cent of control (STK38L (human)) of 100%. It also gave a kinase still bound, per cent of control (ROS1 (human)) of 100%, a kinase still bound, per cent of control (FGFR1 (human)) of 0.4% and a kinase still bound, per cent of control (HCK (human)) of 100%. For the same compound, the kinase still bound, per cent of control (CAMK1D (human)) was 100%, the kinase still bound, per cent of control (ACVR1B (human)) was 100% and the kinase still bound, per cent of control [1] was 100%. For the same compound, the kinase still bound, per cent of control (FLT1 (human)) was 8%, the kinase still bound, per cent of control (TLK1 (human)) was 100% and the kinase still bound, per cent of control (PAK4 (human)) was 100%. For the same compound, the kinase still bound, per cent of control (GAK (human)) was 100%, the kinase still bound, per cent of control (ADCK4 (human)) was 100% and the kinase still bound, per cent of control (STK17B (human)) was 100%. For the same compound, the kinase still bound, per cent of control (STK32C (human)) was 100%, the kinase still bound, per cent of control (TNK2 (human)) was 100% and the kinase still bound, per cent of control (NEK7 (human)) was 100%. It also gave a kinase still bound, per cent of control (NEK5 (human)) of 100%, a kinase still bound, per cent of control (CSNK2A1 (human)) of 100% and a kinase still bound, per cent of control (CDK7 (human)) of 100%. For the same compound, the kinase still bound, per cent of control (PDPK1 (human)) was 100%, the kinase still bound, per cent of control (PKN1 (human)) was 100% and the kinase still bound, per cent of control (CSNK1A1L (human)) was 100%. The kinase still bound, per cent of control (EPHA5 (human)) was 100%.

For CNC(=O)c1ccc(Nc2cc(Nc3ccccc3S(=O)(=O)C(C)C)c3cc[nH]c3n2)nc1, the kinase still bound, per cent of control (RIPK2 (human)) was 100%, the kinase still bound, per cent of control (MAP3K4 (human)) was 100% and the kinase still bound, per cent of control (NEK9 (human)) was 100%. It also gave a kinase still bound, per cent of control (SRPK3 (human)) of 12%, a kinase still bound, per cent of control (NTRK1 (human)) of 0.75% and a kinase still bound, per cent of control (CDK15 (human)) of 18%. It also gave a kinase still bound, per cent of control (RIPK1 (human)) of 100%, a kinase still bound, per cent of control (STK16 (human)) of 2.8% and a kinase still bound, per cent of control (MKNK2 (human)) of 100%. It also gave a kinase still bound, per cent of control (YES1 (human)) of 1.6%, a kinase still bound, per cent of control (STK38L (human)) of 15% and a kinase still bound, per cent of control (ROS1 (human)) of 0.85%. It also gave a kinase still bound, per cent of control (FGFR1 (human)) of 11%, a kinase still bound, per cent of control (HCK (human)) of 11% and a kinase still bound, per cent of control (CAMK1D (human)) of 100%. It also gave a kinase still bound, per cent of control (ACVR1B (human)) of 100%, a kinase still bound, per cent of control [1] of 0.05% and a kinase still bound, per cent of control (FLT1 (human)) of 100%. It also gave a kinase still bound, per cent of control (MST1R (human)) of 100%, a kinase still bound, per cent of control (TLK1 (human)) of 100% and a kinase still bound, per cent of control (PAK4 (human)) of 18%. The kinase still bound, per cent of control (GAK (human)) was 2.5%, the kinase still bound, per cent of control (ADCK4 (human)) was 25% and the kinase still bound, per cent of control (CHUK (human)) was 100%. For the same compound, the kinase still bound, per cent of control (STK17B (human)) was 33%, the kinase still bound, per cent of control (STK32C (human)) was 100% and the kinase still bound, per cent of control (TNK2 (human)) was 1%. It also gave a kinase still bound, per cent of control (NEK7 (human)) of 100%, a kinase still bound, per cent of control (NEK5 (human)) of 100% and a kinase still bound, per cent of control (CSNK2A1 (human)) of 4.4%. The kinase still bound, per cent of control (CDK7 (human)) was 1.8%, the kinase still bound, per cent of control (PDPK1 (human)) was 100% and the kinase still bound, per cent of control (PKN1 (human)) was 0%. For the same compound, the kinase still bound, per cent of control (CSNK1A1L (human)) was 26% and the kinase still bound, per cent of control (EPHA5 (human)) was 100%.
